Assay: In vitro drug release assay (dialysis tube, 50 kDal cut-off)
Type: physicochemical
Conditions: control formulation (drug in 15% acetonitrile and 85% water), within 48 h
Protocol: An in vitro drug release assay was used to determine release profiles of umirolimus, sirolimus, and everolimus. Umirolimus-loaded liposomes were prepared as described above in EXAMPLE 1, and sirolimus-loaded and everolimus-loaded liposomes were prepared as described above in EXAMPLE 4.
For each drug, a control formulation was prepared containing 1.0 mg of drug in 5 mL of a solution containing 15% acetonitrile and 85% water. 5 mL of the control formulations and the liposomal formulations for each drug were loaded into separate dialysis tubes having a molecular weight cut-off of 50 kDal.
Each loaded dialysis tube was placed in an individual 50 mL tube containing 40 mL of release media (15% acetonitrile and 0.5% SDS). The release media in each tube was sampled after 1, 2, 5, 7, 24, 30, and 48 h and the drug concentration in the release media was determined by HPLC as described above in EXAMPLE 1. The cumulative drug release percentage versus release time was plotted for all samples. The results are shown in FIGS. 1, 2, and 3 for umirolimus, everolimus, and sirolimus, respectively.

Q: With 40-alkoxyalkyl-rapamycin [umirolimus] as the substance, how does the “starting amount of drug diffused out of the dialysis tubing” value read?
A: 67%

From patent US20170065520A1, “STABLE LIPOSOMAL FORMULATIONS OF RAPAMYCIN AND RAPAMYCIN DERIVATIVES FOR TREATING CANCER” (Manli International Ltd, priority 2015, published 2017)
